Key:
C2C12 muscle myotubes = experiment: Muscle protein synthesis in C2C12 myotubes under TNF-α stress (radiolabeled phenylalanine incorporation); type: cell-based, mouse; settings: for protein synthesis as compared to the control: synthesis measured over following 4 hours
Experimental: The role of EGCg, in the form of […]® brand green tea extract that contains about 95% EGCg (available from DSM of the Netherlands), in stimulating muscle protein synthesis was evaluated in an in vitro cell-based assay using mouse C2C12 muscle myotubes. This assay measured the incorporation of radiolabeled phenylalanine into myotubes in response to various stimuli. C2C12 myoblasts passaged in FCS DMEM (Fetal Calf Serum Dulbecco's Modified Eagle's Medium) were differentiated to myotubes in HS DMEM (Horse Serum Dulbecco's Modified Eagle's Medium). The myotubes were labeled for 24 hours with L-[2,6-3H] phenylalanine prior to compound experimentation. They were then incubated with TNF-α (50 ng/ml) for 2 hours in the absence, or presence of 10 μM or 50 μM of EGCg, and protein synthesis was measured over the following 4 hours.

mTOR = mTOR activation in skeletal muscle of aged rats, 8-week diet study; type: in vivo, Sprague Dawley rats; settings: 200 mg/kg body weight EGCg per day in AIN-93M diet, 8 weeks, rats aged 20 months; p<0.05
Experimental: (§1) Each of 12 aged Sprague Dawley rats (SD) rats (20 months) were chronically fed the following diets ad libitum for 8 weeks to evaluate the effects on the progression of sarcopenia in the rats:
(§2) Control diet: AIN-93M (AIN-93M diets are well known balanced diets for rodents); and
(§3) Test diet: AIN-93M+200 mg/kg body weight of EGCg.
(§4) The AIN-93M diet was supplemented with EGCG (in the form of TEAVIGO® brand green tea extract) at a concentration of 5 gm/kg diet to deliver a dose of 200 mg/kg body weight of EGCg per day to the SD rat (approximate body weight 500 gm, approximate food intake=20 gm/d) in the test diet.

gastrocnemius muscle = experiment: Gastrocnemius muscle wet weight of aged rats, 8-week diet study; type: in vivo, Sprague Dawley rats; settings: 200 mg/kg body weight EGCg per day in diet, 8 weeks, rats aged 20 months
Experimental: as §1, §2, §3, §4
(§5) This increased activation was associated with increases in gastrocnemius muscle wet weight and muscle fiber cross sectional area, as shown respectively in FIGS. 3 and 4. Excised gastrocnemius muscles were weighed at the end of the 8 weeks. […] With respect to the muscle fiber cross sectional area, 8-micron muscle sections from the SD rats were dissected, mounted, and stained using hematoxylin & eosin at the end of the 8 week period. Approximately 400 fibers were measured per sample. The results are shown in FIG. 4, in which the SD rats fed the test diet (EGCg treatment) have higher cross sectional areas as compared to that of the SD rats fed the control diet (p=0.06).

muscle fiber = experiment: Muscle fiber cross sectional area of aged rats, 8-week diet study; type: in vivo, Sprague Dawley rats; settings: 200 mg/kg body weight EGCg per day in diet, 8 weeks; p=0.06
Experimental: as §1, §2, §3, §4, §5

[1] = test system: 19S regulatory particle ubiquitin proteasome subunits; experiment: Western blot of 19S regulatory particle ubiquitin proteasome subunits, 8-week diet study; type: in vivo, Sprague Dawley rats; settings: 200 mg/kg body weight EGCg per day in diet, 8 weeks
Experimental: as §1, §2, §3, §4
(§6) Conversely, markers of muscle atrophy such as the 19S regulatory and 20S core particle ubiquitin proteasome subunits, MuRF1, and MAFbx were lower at the end of the 8 weeks in those SD rats fed the test diet (EGCg treatment) as compared to those fed the control diet. […] The components of the Ubiquitin Proteasome Pathway (UPP) as shown in FIGS. 5-8 were measured by western blotting in rats treated with either the test (EGCg treatment) or the control diets.

[2] = test system: 20S core particle ubiquitin proteasome subunits; experiment: Western blot of 20S core particle ubiquitin proteasome subunits, 8-week diet study; type: in vivo, Sprague Dawley rats; settings: 200 mg/kg body weight EGCg per day in diet, 8 weeks
Experimental: as §1, §2, §3, §4, §6

[3] = test system: muscle ring finger protein 1 (MuRF1); experiment: Western blot of MuRF1, 8-week diet study; type: in vivo, Sprague Dawley rats; settings: 200 mg/kg body weight EGCg per day in diet, 8 weeks
Experimental: as §1, §2, §3, §4, §6

[4] = test system: muscle atrophy f-box (MAFbx); experiment: Western blot of MAFbx, 8-week diet study; type: in vivo, Sprague Dawley rats; settings: 200 mg/kg body weight EGCg per day in diet, 8 weeks
Experimental: as §1, §2, §3, §4, §6

| Compound | protein synthesis as compared to the control (C2C12 muscle myotubes; 10 μM EGCg plus TNF-α (50 ng/ml, 2 hours), p<0.05) [%] | protein synthesis as compared to the control (C2C12 muscle myotubes; 50 μM EGCg plus TNF-α (50 ng/ml, 2 hours), p<0.01) [%] | increase in intramuscular phosphorylated mTOR expression (mTOR activation) vs control diet (mTOR) [%] | greater muscle mass in excised gastrocnemius muscle vs control diet (gastrocnemius muscle) | muscle fiber cross sectional area vs control diet (muscle fiber) | 19S regulatory particle ubiquitin proteasome subunit expression vs control diet [1] | 20S core particle ubiquitin proteasome subunit expression vs control diet [2] | MuRF1 expression vs control diet [3] | MAFbx expression vs control diet [4] | drop in protein synthesis as compared to the control (C2C12 muscle myotubes; TNF-α alone, 50 ng/ml, 2 hours, p<0.05) [%] |
| --- | --- | --- | --- | --- | --- | --- | --- | --- | --- | --- |
| O=C(O[C@@H]1Cc2c(O)cc(O)cc2O[C@@H]1c1cc(O)c(O)c(O)c1)c1cc(O)c(O)c(O)c1 [EGCg, epigallocatechin gallate] | 104 | 109 | 53 | approximately 5% | higher | lower | lower | lower | lower | – |
| tumor necrosis factor alpha [TNFα, reference compound] | – | – | – | – | – | – | – | – | – | 16 |

Source: patent US20160361291A1, “METHODS FOR INCREASING SKELETAL MUSCLE PROTEIN SYNTHESIS USING GREEN TEA EXTRACT” (ABBOTT LABORATORIES, priority 2013, published 2016)
